Data reported in patent publication US11613552B2, “Pharmaceutical agents, compositions, and methods relating thereto” (Alltech, Inc., priority 2017, dated 2023).

Legend:
INSRβ/AS160 = experiment: Western blot of INSRβ and AS160 phosphorylation in HepG2 cells; type: cell-based, human; conditions: 600 ppb, 30 and 60 minutes (FIG. 23)
Method: HepG2 cells were seeded on 6-well plates (7×10^5 cells/well) and cultured in 10% FBS EMEM media for 30 hr. Then these cells were washed twice with PBS to remove residual sera, and serum-starved in plain EMEM media overnight. These serum-starved HepG2 cells were treated without or with Compound #43 (600 ppb) in serum-free media for 0 minute (right before the treatment), 30 and 60 minutes.
After the above treatments, cultured HepG2 cells or differentiated C2C12 cells were rinsed twice with ice-cold PBS and lysed in ice-cold RIPA buffer containing complete proteinase and phosphatase inhibitors (Thermo-Fisher Scientific, Waltham, Mass.) on ice for 30 min. […] Protein levels in the supernatant of these cell lysates were determined using the Pierce Micro-BCA protein assay kit (Thermo Scientific-Piece Biotechnology, Rockford, Ill.) according to the manufacturer's protocol.
One hundred micrograms of skeletal muscle or liver tissue proteins, five micrograms of HepG2 cell protein extracts, or eight micrograms of differentiated C2C12 cell protein extracts were subjected to SDS-PAGE gel separation and then transferred to PVDF membranes, as described previously (Reddy et al. 2008 Science). […] Positive signals on the membrane blots were detected using the Amersham's enhanced chemiluminescence Western Blotting Prime Detection reagents (GE Healthcare Lifescience, Pittsburgh, Pa.). […]

G6pc = experiment: QRT-PCR of G6pc mRNA in livers of Lepr^db/db mice; type: in vivo, mouse; conditions: 25 μg selenium/kg ip daily, 52 days (FIG. 9)
Method: (§1) Male Lepr^db/db mice (C57BL/6J strain, purchased from The Jackson Laboratory) at 38-days of age were intraperitoneally injected daily with physiological saline ([…]) containing 0.2% DMSO, Compound #50, or Compound #43 (25 μg selenium equivalent of each compound per kilogram body weight, diluted in the sterile physiological saline) for 52 days. After the treatment, livers were collected and subjected RNA analysis.
Total RNA from saline- or selenium compound-treated Lepr^db/db mice was isolated using a Qiagen RNAeasy RNA isolation kit according to the Manufacturer's protocol. Total RNA from cultured cells was isolated using Trizol (Invitrogen) according to the manufacturer's protocol, and then incubated with DNase I to remove any potential contaminating genomic DNA. RNA samples were subjected to real-time PCR (QRT-PCR) analysis using Applied-Bioscience's RT kit and predesigned Taqman probes (Invitrogen), as described previously (Lan et al EMBO J 2003). Data were normalized by Actin B (Actb) mRNA levels in each sample, and are presented as mean±SEM of 3-5 samples.

Pdk1/Akt/Foxo1 = experiment: Western blot of Pdk1/Akt/Foxo1 signaling in livers of Lepr^db/db mice; type: in vivo, mouse; conditions: 25 μg selenium/kg ip daily, 52 days (FIG. 12)
Method: as §1, with “postnatal day 38” for “38-days of age”, “Compound” for “Compound #50, or Compound”, “selenium or sulfur” for “selenium”, “in” for “in the”, “stored at −80° C.” for “subjected RNA analysis.”
Frozen liver tissues were minced in sterile ice-old PBS containing complete proteinase and phosphatase inhibitors (Thermo-Fisher Scientific, Waltham, Mass.) and subjected to homogenization using a tissue homogenizer (Thermo-Fisher Scientific, Waltham, Mass.). These tissue homogenates were diluted in Themo-Fisher's premade RIPA buffer (1 part homogenate/2 part of RIPA buffer) containing complete proteinase/phosphatase inhibitors to extract the proteins. Proteins in the homogenates were extracted in RIPA buffer at 4° C. overnight. These overnight-extracted protein lysates were centrifuged at 12000×g for 30 min at 4° C., and the protein levels in the supernatant of these tissue lysates were determined using the Pierce Micro-BCA protein assay kit (Thermo Scientific-Piece Biotechnology, Rockford, Ill.) according to the manufacturer's protocol.
One hundred micrograms of liver tissue proteins or five micrograms of total proteins from control- and compound(s)-treated HepG2 or AML-12 cells were subjected to SDS-PAGE gel separation and then transferred to PVDF membranes, as described previously (Reddy et al. 2008 Science). Membranes were blocked in a phosphate-buffered saline (PBS) containing 5% (w/v) of bovine serum albumin (Sigma, St. Louis, Mo.) and incubated with specific primary antibodies followed by the incubation with HRP-conjugated anti-mouse or anti-rabbit secondary antibodies (1:5000 dilution, Cell Signaling Inc.). All primary antibodies except Gapdh (Li-COR, Lincoln, Nebr.) were purchased from Cell Signaling Inc. Positive signals on the membrane blots were detected using the Amersham's enhanced chemiluminescence Western Blotting Prime Detection reagents (GE Healthcare Lifescience, Pittsburgh, Pa.). Images of these luminescence signals on the membrane blots were captured using the LI-COR Odyssey Fc Image system (Lincoln, Nebr.). The same membrane blot was stripped and re-blotted with another antibody as described in the GE WB ECL-prime-detection protocol (GE healthcare Lifescience, Pittsburgh, Pa.). Protein band densities in the Western blots were determined using the NIH ImageJ software and then normalized by Gapdh or Actb/ACTB level in each sample. Data are presented as mean±SEM of three samples per each group.

STZ-induced T1D mice = experiment: Blood glucose in STZ-induced type 1 diabetic mice after acute treatment; type: in vivo, mouse; conditions: 5.4 mg/kg ip, fasted
Method: Five-week-old C57/BL6 male mice were intraperitoneally injected with streptozotocin (STZ, 55 mg/kg mouse body weigh) daily for 5 days, and then housed in the vivarium for another 14 days for recovery. Blood glucose levels of these mice were measured using a glucometer. Those animals with a blood glucose level higher than 500 mg/dL were considered to be type I diabetic (T1D). These T1D mice with unfasted blood glucose levels between 500-550 mg/dL were fasted overnight and injected intraperitoneally with Compound #43 at a dose of 5.4 mg/kg body weight or physiological saline containing 2% DMSO (Compound #43 stock solvent). At 1, 2 and 3 hours post-injection, blood glucose levels in these mice were measured using the glucometer.

C[Se]C[C@H]1O[C@@H](n2cnc3c(N)ncnc32)C(OC(C)=O)C1OC(C)=O (stereo partly drawn) [Compound #43, Adenosine, 5′-Se-methyl-5′-selino-, 2′,3′-diacetate]
phosphorylated AS160 (INSRβ/AS160): significant increase of phosphorylated AS160 at 5588
phosphorylated INSRβ at Y1146 (INSRβ/AS160): significant increase of phosphorylated INSRβ at Y1146
reduction of G6pc mRNA levels in the liver vs saline (G6pc): about 56%
pAkt (Threonine 308) protein level in liver (Pdk1/Akt/Foxo1): significantly elevated
pFoxo1 (Serine 256) protein level in liver (Pdk1/Akt/Foxo1): significantly elevated
pPdk1 protein level in liver (Pdk1/Akt/Foxo1): significantly elevated
total Akt levels in liver (Pdk1/Akt/Foxo1): no significant change
blood glucose levels (STZ-induced T1D mice; 2 and 3 hours (FIG. 28)): significant decrease in blood glucose levels
blood glucose levels (STZ-induced T1D mice; 1 hour (FIG. 28)): trend of decreased blood glucose levels
